Target: T1, Lysine-specific demethylase 4C (Homo sapiens, UniProt Q9H3R0)
T1 sequence (Q9H3R0 whole entry): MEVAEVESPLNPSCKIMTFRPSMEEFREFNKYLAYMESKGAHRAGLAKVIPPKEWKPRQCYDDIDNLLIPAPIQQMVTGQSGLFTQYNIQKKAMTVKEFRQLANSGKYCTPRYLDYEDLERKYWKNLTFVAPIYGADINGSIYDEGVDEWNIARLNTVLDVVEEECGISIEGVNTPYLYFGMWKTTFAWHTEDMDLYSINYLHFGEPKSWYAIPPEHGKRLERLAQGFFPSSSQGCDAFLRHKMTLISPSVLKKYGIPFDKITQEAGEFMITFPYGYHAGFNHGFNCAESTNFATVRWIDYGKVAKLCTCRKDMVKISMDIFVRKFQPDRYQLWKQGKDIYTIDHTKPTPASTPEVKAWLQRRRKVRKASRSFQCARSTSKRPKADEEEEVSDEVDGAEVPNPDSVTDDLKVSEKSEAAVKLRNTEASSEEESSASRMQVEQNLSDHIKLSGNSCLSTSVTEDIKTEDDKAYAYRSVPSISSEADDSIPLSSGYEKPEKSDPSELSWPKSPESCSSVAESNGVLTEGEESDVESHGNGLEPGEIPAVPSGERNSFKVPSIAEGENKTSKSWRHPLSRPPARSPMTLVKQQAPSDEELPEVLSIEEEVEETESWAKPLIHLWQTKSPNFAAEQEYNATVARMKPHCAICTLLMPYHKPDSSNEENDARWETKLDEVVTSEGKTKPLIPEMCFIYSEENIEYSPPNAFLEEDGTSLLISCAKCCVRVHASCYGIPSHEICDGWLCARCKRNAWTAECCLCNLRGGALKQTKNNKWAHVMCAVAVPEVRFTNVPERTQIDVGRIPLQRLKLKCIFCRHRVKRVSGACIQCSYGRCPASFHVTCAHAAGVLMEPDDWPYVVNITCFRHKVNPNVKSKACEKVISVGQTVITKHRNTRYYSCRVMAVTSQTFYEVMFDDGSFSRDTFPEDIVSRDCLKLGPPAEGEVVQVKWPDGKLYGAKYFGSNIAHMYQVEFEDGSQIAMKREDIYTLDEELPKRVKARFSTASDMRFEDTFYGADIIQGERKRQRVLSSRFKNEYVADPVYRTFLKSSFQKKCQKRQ
Assay: JMJD2C Assay: The ability of test compounds to inhibit the activity of JMJD2C was determined in 384-well plate-format under the following reaction conditions: 0.3 nM JMJD2C, 300 nM H3K9me3-biotin labeled peptide (Anaspec cat #64360), 2 μM alpha-ketoglutaric acid in assay buffer of 50 mM HEPES, pH 7.3, 0.005% Brij35, 0.5 mM TCEP, 0.2 mg/ml BSA, 50 μM sodium L-ascorbate, and 2 μM ammonium iron(II) sulfate. Reaction product was determined quantitatively by TR-FRET after the addition of detection reagent Phycolink Streptavidin-allophycocyanin (Prozyme) and Europium-anti-di-methylated histone H3 lysine 9 (H3K9me2) antibody (PerkinElmer) in the presence of 5 mM EDTA in LANCE detection buffer (PerkinElmer) at a final concentration of 50 nM and 1 nM, respectively.The assay reaction was initiated by the following: 2 μl of the mixture of 900 nM H3K9me3-biotin labeled peptide and 6 μM alpha-ketoglutaric acid with 2 μl of 11-point serial diluted inhibitor in 3% DMSO were added to each well of the plate, followed by the addition of 2 μl of 0.9 nM JMJD2C to initiate the reaction. The reaction mixture was incubated at room temperature for 30 min, and terminated by the addition of 6 μl of 5 mM EDTA in LANCE detection buffer containing 100 nM Phycolink Streptavidin-allophycocyanin and 2 nM Europium-anti-H3K9me2 antibody. […]

CC(C)N1CCN(c2cccc(N(C)c3ccc(Oc4nc(O)c5ccncc5n4)cc3)c2)CC1 gave an IC50 of under 0.1 µM.

— ChEMBL document CHEMBL5726478, “Histone demethylase inhibitors” (2019)
